Assay results from patent US11407719B2, “Anti-inflammatory agents” (Resverlogix Corp., priority 2009, dated 2022).

Tests used:
[1] = system: hIL-6 mRNA; test: Quantification of hIL-6 mRNA; assay type: cell-based, human; parameters: key: Active: an active compound is one that causes a ≥20% inhibition in IL-6 mRNA at a concentration less than or equal to 10 μM; details: IL-6 mRNA by real-time PCR; differentiated U937 cells, 1 h pretreatment, lipopolysaccharide stimulation 3 h; concentration ≤10 μM
Protocol: In this example, […] in tissue culture cells was quantitated to measure the transcriptional inhibition of hIL-6 when treated with a compound of the invention.
A human leukemic monocyte lymphoma cell line (U937) was plated (3.2×10^5 cells per well) in a 96-well plate in 100 μL RPMI-1640, and differentiated for 3 days prior to the addition of the compound of interest. The cells were pretreated for 1 h with the test compound prior to stimulation with lipolysaccharide from Escherichia coli. The cells were incubated at 37° C. for 3 h before the cells were harvested. At time of harvest, the spent media was removed from the cells and the cells were rinsed in 200 μL PBS. Cell lysis solution (70 μL) was added the cells in each well and incubated for 5-10 min at room temperature, to allow for complete cell lysis and detachment. mRNA was then prepared using the “mRNA Catcher PLUS plate” (Invitrogen), according to the protocol supplied. After the last wash, as much wash buffer as possible was aspirated without allowing the wells to dry. Elution buffer (E3, 70 μL) was then added to each well. mRNA was then eluted by incubating the mRNA Catcher PLUS plate with Elution Buffer for 5 min at 68° C. and then immediately placing the plate on ice.
(§1) The eluted mRNA isolated was then used in a one-step quantitative real-time PCR reaction, using components of the Ultra Sense Kit together with Applied Biosystems primer-probe mixes. Real-time PCR data was analyzed, normalizing the Ct values for hIL-6 to an internal control, prior to determining the fold induction of each unknown sample, relative to the control.

[2] = system: VCAM-1 mRNA; test: Quantification of hVCAM mRNA; assay type: cell-based, human; parameters: key: Active: an active compound is one that causes a ≥20% inhibition in VCAM-1 mRNA at a concentration less than or equal to 10 μM; -1 mRNA at a concentration less than or equal to 10 μM; details: VCAM-1 mRNA by real-time PCR; HUVECs, 1 h pretreatment, tumor necrosis factor-α stimulation 24 h; concentration ≤10 μM
Protocol: In this example, […] in tissue culture cells was quantitated to measure the transcriptional inhibition of hVCAM when treated with a compound of the invention.
Human umbilical vein endothelial cells (HUVECs) were plated in a 96-well plate (4.0×10^3 cells/well) in 100 μL EGM media and incubated for 24 h prior to the addition of the compound of interest. The cells were pretreated for 1 h with the test compound prior to stimulation with tumor necrosis factor-α. The cells were incubated for an additional 24 h before the cells were harvested. At time of harvest, the spent media was removed from the HUVECs and rinsed in 200 μL PBS. Cell lysis solution (70 μL) was then added the cells in each well and incubated for ˜5-10 min at room temperature, to allow for complete cell lysis and detachment. mRNA was then prepared using the “mRNA Catcher PLUS plate” (Invitrogen), according to the protocol supplied. After the last wash, as much wash buffer as possible was aspirated without allowing the wells to dry. Elution buffer (E3, 70 μL) was then added to each well. mRNA was then eluted by incubating the mRNA Catcher PLUS plate with elution buffer for 5 min at 68° C. and then immediately placing the plate on ice.
as §1, with “mRNA so” for “mRNA”, “hVCAM” for “hIL-6”

SMILES	Inhibition of IL-6 expression [1]	Inhibition of VCAM-1 expression [2]
COc1cc(OC)c2c(=O)[nH]c(-c3ccc(N4CCN(C(=O)c5cc(Cl)sc5Cl)CC4)cc3)nc2c1 [2-(4-(4-(2,5-Dichlorothiophene-3-carbonyl)piperazin-1-yl)phenyl)-5,7-dimethoxyquinazolin-4(3H)-one]	Active	Active
COc1cc(OC)c2c(=O)[nH]c(-c3ccc(N4CCN(CCO)CC4)cc3)nc2c1 [2-(4-(4-(2-hydroxyethyl)piperazin-1-yl)phenyl)-5,7-dimethoxyquinazolin-4(3H)-one]	Active	Active
COc1cc(OC)c2c(=O)[nH]c(-c3ccc(N4CCN(C(=O)c5ccc(F)cc5)CC4)cc3)nc2c1 [2-(4-(4-(4-Fluorobenzoyl)piperazin-1-yl)phenyl)-5,7-dimethoxyquinazolin-4(3H)-one]	Active	Active
COc1cc(OC)c2c(=O)[nH]c(-c3ccc(N4CCN(C(=O)c5cnn(C)c5Cl)CC4)cc3)nc2c1 [2-(4-(4-(5-Chloro-1-methyl-1H-pyrazole-4-carbonyl)piperazin-1-yl)phenyl)-5,7-dimethoxyquinazolin-4(3H)-one]	Active	Active
COc1cc(OC)c2c(=O)[nH]c(-c3ccc(N4CCN(C(=O)C5CC5)CC4)cc3)nc2c1 [2-(4-(4-(Cyclopropanecarbonyl)piperazin-1-yl)phenyl)-5,7-dimethoxyquinazolin-4(3H)-one]	Active	Active
COc1cc(OC)c2c(=O)[nH]c(-c3ccc(N4CCN(C(C)=O)C(C)C4)cc3)nc2c1 (stereo not drawn) [2-(4-(4-Acetyl-3-methylpiperazin-1-yl)phenyl)-5,7-dimethoxyquinazolin-4(3H)-one]	Active	Active
COc1cc(OC)c2c(=O)[nH]c(-c3ccc(N4CCN(C(C)=O)CC4)cc3)nc2c1 [2-(4-(4-Acetylpiperazin-1-yl)phenyl)-5,7-dimethoxyquinazolin-4(3H)-one]	Active	Active
COc1cc(OC)c2c(=O)[nH]c(-c3ccc(N4CCN(C(=O)c5ccccc5)CC4)cc3)nc2c1 [2-(4-(4-Benzoylpiperazin-1-yl)phenyl)-5,7-dimethoxyquinazolin-4(3H)-one]	Active	Active
CCCCCC(=O)N1CCN(c2ccc(-c3nc4cc(OC)cc(OC)c4c(=O)[nH]3)cc2)CC1 [2-(4-(4-Hexanoylpiperazin-1-yl)phenyl)-5,7-dimethoxyquinazolin-4(3H)-one]	Active	Inactive
COc1cc(OC)c2c(=O)[nH]c(-c3ccc(N4CCN(C(=O)C(C)C)CC4)cc3)nc2c1 [2-(4-(4-Isobutyrylpiperazin-1-yl)phenyl)-5,7-dimethoxyquinazolin-4(3H)-one]	Active	Active
COc1cc(OC)c2c(=O)[nH]c(-c3ccc(N4CCN(C(C)C)CC4)cc3)nc2c1 [2-(4-(4-Isopropylpiperazin-1-yl)phenyl)-5,7-dimethoxyquinazolin-4(3H)-one]	Active	Active
COc1cccc2c(=O)[nH]c(-c3ccc(N4CCN(C(C)C)CC4)cc3)nc12 [2-(4-(4-Isopropylpiperazin-1-yl)phenyl)-8-methoxyquinazolin-4(3H)-one]	Active	Active
CCCCN1CCN(c2ccc(-c3nc4cc(OC)cc(OC)c4c(=O)[nH]3)cc2)CC1 [2-(4-(4-butylpiperazin-1-yl)phenyl)-5,7-dimethoxyquinazolin-4(3H)-one]	Active	Active
COc1cc(OC)c2c(=O)[nH]c(-c3ccc(N4C[C@@H](C)N[C@@H](C)C4)cc3)nc2c1 [2-(4-((3R,5S)-3,5-Dimethylpiperazin-1-yl)phenyl)-5,7-dimethoxyquinazolin-4(3H)-one]	Active	Active
COc1cc(OC)c2c(=O)[nH]c(-c3ccc(N4C[C@@H](C)N(C(C)=O)[C@@H](C)C4)cc3)nc2c1 [2-(4-((3R,5S)-4-Acetyl-3,5-dimethylpiperazin-1-yl)phenyl)-5,7-dimethoxyquinazolin-4(3H)-one]	Active	Active
CCN1CCN(Cc2ccc(-c3nc4cc(OC)cc(OC)c4c(=O)[nH]3)cc2)CC1 [2-(4-((4-ethylpiperazin-1-yl)methyl)phenyl)-5,7-dimethoxyquinazolin-4(3H)-one]	Active	Active
COc1cc2nc(-c3ccc(N(C)C)c4ccccc34)[nH]c(=O)c2cc1OC [2-(4-(dimethylamino)naphthalen-1-yl)-6,7-dimethoxyquinazolin-4(3H)-one]	Active	Active
COc1cc(OC)c2c(=O)[nH]c(-c3ccc4[nH]c(CCN5CCCC5)cc4c3)nc2c1 [5,7-Dimethoxy-2-(2-(2-(pyrrolidin-1-yl)ethyl)-1H-indol-5-yl)quinazolin-4(3H)-one]	Active	Active
COc1cc(OC)c2c(=O)[nH]c(-c3ccc4[nH]c(CN5CCCC5)cc4c3)nc2c1 [5,7-Dimethoxy-2-(2-(pyrrolidin-1-ylmethyl)-1H-indol-5-yl)quinazolin-4(3H)-one]	Active	Active
COc1cccc(-c2nc3cc(OC)cc(OC)c3c(=O)[nH]2)c1 [5,7-Dimethoxy-2-(3-methoxyphenyl)quinazolin-4(3H)-one]	Active	Active
COc1cc(OC)c2c(=O)[nH]c(-c3ccc(N4CCN(C(=O)CC(F)(F)F)CC4)cc3)nc2c1 [5,7-Dimethoxy-2-(4-(4-(3,3,3-trifluoropropanoyl)piperazin-1-yl)phenyl)quinazolin-4(3H)-one]	Active	Active
COc1cc(OC)c2c(=O)[nH]c(-c3ccc(N4CCCN(C)CC4)cc3)nc2c1 [5,7-Dimethoxy-2-(4-(4-methyl-1,4-diazepan-1-yl)phenyl)quinazolin-4(3H)-one]	Active	Active
COc1cc(OC)c2c(=O)[nH]c(-c3ccc(N4CCNCC4)cc3)nc2c1 [5,7-Dimethoxy-2-(4-(piperazin-1-yl)phenyl)quinazolin-4(3H)-one]	Active	Active
COc1cc(OC)c2c(=O)[nH]c(-c3ccc(Nc4cccnc4)cc3)nc2c1 [5,7-Dimethoxy-2-(4-(pyridin-3-ylamino)phenyl)quinazolin-4(3H)-one]	Active	Active
COc1cc(OC)c2c(=O)[nH]c(-c3cc(C)c(OCCN4CCOCC4)c(C)c3)cc2n1 [7-(3,5-dimethyl-4-(2-morpholinoethoxy)phenyl)-2,4-dimethoxy-1,6-naphthyridin-5(6H)-one]	Active	Active
COc1cc(OC)c2c(=O)[nH]c(-c3cc(C)c(OC[C@@H]4CCC(=O)N4)c(C)c3)nc2c1 [(S)-2-(3,5-Dimethyl-4-((5-oxopyrrolidin-2-yl)methoxy)phenyl)-5,7-dimethoxyquinazolin-4(3H)-one]	Active	Active
CCN(C(C)=O)C1CCN(c2ccc(-c3nc4cc(OC)cc(OC)c4c(=O)[nH]3)cc2)CC1 [N-(1-(4-(5,7-Dimethoxy-4-oxo-3,4-dihydroquinazolin-2-yl)phenyl)piperidin-4-yl)-N-ethylacetamide]	Active	Active
